# Measurements reported in US20160145247A1, “Aminomethyl-Biaryl Derivatives Complement Factor D inhibitors and uses thereof” (NOVARTIS AG, priority 2013, published 2016).
# Values joined by “and” are separate entries in the source; they are usually repeats but may differ in a detail not shown here. Equal values may be shown once.
# Target: T1, factor D (Homo sapiens, UniProt P00746)
# T1 construct: made in house; host or cells: E. coli
# Assay: factor D inhibition assay of Biological Example 2
# Type: biochemical
# T1 sequence (P00746 26-253): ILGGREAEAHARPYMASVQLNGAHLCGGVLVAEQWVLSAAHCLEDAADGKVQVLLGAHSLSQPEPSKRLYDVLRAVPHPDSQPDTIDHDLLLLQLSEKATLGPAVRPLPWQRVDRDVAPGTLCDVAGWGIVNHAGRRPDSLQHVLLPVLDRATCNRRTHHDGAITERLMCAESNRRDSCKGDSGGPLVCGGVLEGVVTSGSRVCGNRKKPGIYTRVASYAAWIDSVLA
row,IC50,Compound
1,30 nM,"N[C@H](CO)c1cccc(-c2ccc(C(F)(F)F)c(COc3ccccc3CC(=O)O)c2)c1 [Example 167, (S)-2-(2-((3′-(1-Amino-2-hydroxyethyl)-4-(trifluoromethyl)-[1,1′-biphenyl]-3-yl)methoxy)phenyl)acetic acid]"
2,33 nM,"COC[C@@H](N)c1cccc(-c2cccc(COc3ccccc3CC(=O)O)c2)c1 [Example 169, (S)-2-(2-((3′-(1-Amino-2-methoxyethyl)-[1,1′-biphenyl]-3-yl)methoxy)phenyl)acetic acid]"
3,22 nM,"N[C@H](CO)c1cccc(-c2ccnc(COc3ccccc3CC(=O)O)c2)c1 [Example 170, (S)-2-(2-((4-(3-(1-Amino-2-hydroxyethyl)phenyl)pyridin-2-yl)methoxy)phenyl)acetic acid]"
4,147 nM,"CCOC[C@@H](N)c1cccc(-c2cccc(COc3ccccc3CC(=O)O)c2)c1 [Example 173, (S)-2-(2-((3′-(1-Amino-2-ethoxyethyl)-[1,1′-biphenyl]-3-yl)methoxy)phenyl)acetic acid]"
5,149 nM,"C[C@@H](N)c1cccc(-c2ccnc(COc3ccccc3CC(=O)O)c2)c1 [Example 180, (R)-2-(2-((4-(3-(1-Aminoethyl)phenyl)pyridin-2-yl)methoxy)phenyl)acetic acid]"
6,436 nM,"COC[C@@H](N)c1cccc(-c2ccnc(COc3ccccc3CC(=O)O)c2)c1 [Example 184, (S)-2-(2-((4-(3-(1-amino-2-methoxyethyl)phenyl)pyridin-2-yl)methoxy)phenyl)acetic acid]"
7,24 nM,"Cc1cc(-c2cccc([C@H](N)CO)c2)cc(COc2ccccc2CC(=O)O)n1 [Example 185, (S)-2-(2-((4-(3-(1-Amino-2-hydroxyethyl)phenyl)-6-methylpyridin-2-yl)methoxy)phenyl)acetic acid]"
8,14 nM,"Cc1ccc(S(=O)(=O)n2ncc3c(COc4ccccc4CC(=O)O)cc(-c4cccc([C@H](N)CO)c4)cc32)cc1 [Example 186, (S)-2-(2-((6-(3-(1-Amino-2-hydroxyethyl)phenyl)-1-tosyl-1H-indazol-4-yl)methoxy)phenyl)acetic acid]"
9,17 nM,"N[C@H](CO)c1cccc(-c2ccc(OC(F)(F)F)c(COc3ccccc3CC(=O)O)c2)c1 [Example 188, (S)-2-(2-((3′-(1-Amino-2-hydroxyethyl)-4-(trifluoromethoxy)-[1,1′-biphenyl]-3-yl)methoxy)phenyl)acetic acid]"
10,41 nM,N[C@H](CO)c1cc(F)cc(-c2cccc(COc3ccccc3CC(=O)O)c2)c1 [Example 190-A]
11,1210 nM,CC[C@@H](N)c1cccc(-c2cccc(COc3ccccc3CC(=O)O)c2)c1 [Example 190-C]
12,981 nM,C[C@H](O)[C@@H](N)c1cccc(-c2cccc(COc3ccccc3CC(=O)O)c2)c1 [Example 190-D]
13,34 nM,CCC[C@@H](N)c1cccc(-c2cccc(COc3ccccc3CC(=O)O)c2)c1 [Example 190-E]
14,3150 nM,CC(C)[C@@H](N)c1cccc(-c2cccc(COc3ccccc3CC(=O)O)c2)c1 [Example 190-F]
15,122 nM,C[C@@H](O)[C@@H](N)c1cccc(-c2cccc(COc3ccccc3CC(=O)O)c2)c1 [Example 190-G]
16,13 nM,N[C@H](CCO)c1cccc(-c2cccc(COc3ccccc3CC(=O)O)c2)c1F [Example 190-J]
17,18 nM,"N=C(N)c1cccc(-c2cccc(COc3ccccc3CC(=O)O)c2)c1 [Example 192-B, 2-(2-((3′-Carbamimidoyl-[1,1′-biphenyl]-3-yl)methoxy)phenyl)acetic acid]"
18,48 nM,"N[C@H](C(=O)O)c1cccc(-c2cccc(COc3ccccc3CC(=O)O)c2)c1 [Example 193, (S)-2-Amino-2-(3′-((2-(carboxymethyl)phenoxy)methyl)-[1,1′-biphenyl]-3-yl)acetic acid]"
19,206 nM,CCC[C@@H](N)c1cc(-c2cccc(COc3ccccc3CC(=O)O)c2)ccn1 [Example 196-B]
20,642 nM,CCCC[C@@H](N)c1cccc(-c2cccc(COc3ccccc3CC(=O)O)c2)c1 [Example 196-D]
21,272 nM,N#CC[C@@H](N)c1cccc(-c2cccc(COc3ccccc3CC(=O)O)c2)c1 [Example 196-E]
22,6 nM,NC(CF)c1cccc(-c2cccc(COc3ccccc3CC(=O)O)c2)c1F (stereo not shown) [Example 196-F]
23,1080 nM,N[C@@H](c1cccc(-c2cccc(COc3ccccc3CC(=O)O)c2)c1)C1CC1 [Example 196-G]
24,1180 nM,N[C@H](CC(F)(F)F)c1cccc(-c2cccc(COc3ccccc3CC(=O)O)c2)c1 [Example 196-H]
25,239 nM,N[C@H](CC1CC1)c1cccc(-c2cccc(COc3ccccc3CC(=O)O)c2)c1 [Example 196-I]
26,113 nM,"CCC[C@@H](N)c1cccc(-c2cc(COc3ccccc3CC(=O)O)cc(NCCOC)c2)c1 [Example 201, (R)-2-(2-((3′-(1-Aminobutyl)-5-((2-methoxyethyl)amino)-[1,1′-biphenyl]-3-yl)methoxy)phenyl)acetic acid]"
27,19 nM,CNC(c1cc(COc2ccccc2CC(=O)O)cc(-c2cccc(CN)c2)c1)C(F)(F)F (stereo not shown) [Example 208-A]
28,27 nM,CN(C)C(c1cc(COc2ccccc2CC(=O)O)cc(-c2cccc(CN)c2)c1)C(F)(F)F (stereo not shown) [Example 208-B]

# More lines, now with the values behind:
row,Compound,IC50
1,"NCc1cccc(-c2cccc(COc3ccc(Br)cc3CC(=O)O)c2)c1 [Example 168, 2-(2-((3′-(Aminomethyl)-[1,1′-biphenyl]-3-yl)methoxy)-5-bromophenyl)acetic acid]",27 nM
2,"NCc1cccc(-c2cccc(COc3c(Br)cccc3CC(=O)O)c2)c1 [Example 174, 2-(2-((3′-(Aminomethyl)-[1,1′-biphenyl]-3-yl)methoxy)-3-bromophenyl)acetic acid]",111 nM
3,"NCc1ccc(F)c(-c2ccnc(COc3ccccc3CC(=O)O)c2)c1 [Example 176, 2-(2-((4-(5-(Aminomethyl)-2-fluorophenyl)pyridin-2-yl)methoxy)phenyl)acetic acid]",5740 nM
4,"Cc1ccc(S(=O)(=O)n2ncc3c(COc4ccccc4CC(=O)O)cc(-c4cccc(CN)c4)cc32)cc1 [Example 178, 2-(2-((6-(3-(Aminomethyl)phenyl)-1-tosyl-1H-indazol-4-yl)methoxy)phenyl)acetic acid]",2 nM
5,"NCc1cccc(-c2cc(COc3ccccc3CC(=O)O)c3cn[nH]c3c2)c1 [Example 179, 2-(2-((6-(3-(Aminomethyl)phenyl)-1H-indazol-4-yl)methoxy)phenyl)acetic acid]",4 nM
6,"NCc1cccc(-c2ccnc(COc3ccccc3CC(=O)O)c2)c1F [Example 182, 2-(2-((4-(3-(Aminomethyl)-2-fluorophenyl)pyridin-2-yl)methoxy)phenyl)acetic acid]",8 nM
7,"NCc1cc(F)cc(-c2cccc(COc3ccccc3CC(=O)O)c2)c1 [Example 187, 2-(2-((3′-(Aminomethyl)-5′-fluoro-[1,1′-biphenyl]-3-yl)methoxy)phenyl)acetic acid]",174 nM
8,N[C@H](CCO)c1cccc(-c2cccc(COc3ccccc3CC(=O)O)c2)n1 [Example 190-H],1120 nM
9,NCc1nc(-c2cccc(COc3ccccc3CC(=O)O)c2)cs1 [Example 190-K],133 nM
10,CC(C)(N)c1cccc(-c2cccc(COc3ccccc3CC(=O)O)c2)c1F [Example 190-L],3270 nM
11,"O=C(O)Cc1ccccc1OCc1cccc(-c2cccc(-c3nnn[nH]3)c2)c1 [Example 191, 2-(2-((3′-(1H-Tetrazol-5-yl)-[1,1′-biphenyl]-3-yl)methoxy)phenyl)acetic acid]",20500 nM and 20800 nM
12,"CCC[C@@H](N)c1cccc(-c2cccc(COc3c(F)cccc3CC(=O)O)c2)c1 [Example 194, (R)-2-(2-((3′-(1-Aminobutyl)-[1,1′-biphenyl]-3-yl)methoxy)-3-fluorophenyl)acetic acid]",263 nM
13,"CCC[C@@H](N)c1cccc(-c2cccc(COc3ccccc3CC(=O)O)c2)c1F [Example 195-B, (R)-2-(2-((3′-(1-Aminobutyl)-2′-fluoro-[1,1′-biphenyl]-3-yl)methoxy)phenyl)acetic acid]",107 nM
14,CCC[C@@H](N)c1cccc(-c2cccc(COc3ccccc3CC(=O)O)c2)n1 [Example 196-A],11300 nM
15,NC(c1ccccc1)c1cccc(-c2cccc(COc3ccccc3CC(=O)O)c2)c1 (stereo not shown) [Example 196-C],313 nM
16,"CCC[C@@H](N)c1cccc(-c2cc(COc3ccccc3CC(=O)O)cc(NCC3CC3)c2)c1 [Example 197, (R)-2-(2-((3′-(1-Aminobutyl)-5-((cyclopropylmethyl)amino)-[1,1′-biphenyl]-3-yl)methoxy)phenyl)acetic acid]",69 nM
17,"CCC[C@@H](N)c1cccc(-c2cc(COc3ccccc3CC(=O)O)cc(N3CCOCC3)c2)c1F [Example 198-C, (R)-2-(2-((3′-(1-Aminobutyl)-2′-fluoro-5-morpholino-[1,1′-biphenyl]-3-yl)methoxy)phenyl)acetic acid]",199 nM
18,CCC[C@@H](N)c1cccc(-c2cc(COc3ccccc3CC(=O)O)cc(N3CCCC3)c2)c1F [Example 199-A],148 nM
19,CCC[C@@H](N)c1cccc(-c2cc(COc3ccccc3CC(=O)O)cc(NCC3CC3)c2)c1F [Example 199-B],69 nM
20,CCC[C@@H](N)c1cccc(-c2cc(COc3ccccc3CC(=O)O)cc(NC[C@@H]3CCCO3)c2)c1F [Example 199-C],65 nM
21,"CCC[C@@H](N)c1cccc(-c2cc(COc3ccccc3CC(=O)O)cc(-c3ccccc3)c2)c1F [Example 200-B, (R)-2-(2-((3-(1-aminobutyl)-2-fluoro-[1,1′:3′,1″-terphenyl]-5′-yl)methoxy)phenyl)acetic acid]",22 nM
22,"CCC[C@@H](N)c1cccc(-c2cc(COc3ccccc3CC(=O)O)cc(C3CC3)c2)c1F [Example 202-B, (R)-2-(2-((3′-(1-Aminobutyl)-5-cyclopropyl-2′-fluoro-[1,1′-biphenyl]-3-yl)methoxy)phenyl)acetic acid]",33 nM
23,"CCC[C@@H](N)c1cccc(-c2cc(COc3ccccc3CC(=O)O)cc(-c3cnn(C)c3)c2)c1F [Example 203, (R)-2-(2-((3′-(1-Aminobutyl)-2′-fluoro-5-(1-methyl-1H-pyrazol-4-yl)-[1,1′-biphenyl]-3-yl)methoxy)phenyl)acetic acid]",54 nM
24,NCc1cccc(-c2cc(COc3ccccc3CC(=O)O)cc(C(Nc3ccccc3)C(F)(F)F)c2)c1 (stereo not shown) [Example 208-C],6 nM
